Reference: ChEMBL document CHEMBL4715887, “Synthesis of novel isoflavone/benzo-δ-sultam hybrids as potential anti-inflammatory drugs” (Bioorg Med Chem Lett, 2021)
Calls of active or inactive are those of the source. No cut-off for these calls is given here.

Assays:
BV-2 [1] = test: Cytotoxicity against mouse BV2 cells assessed as reduction in cell viability at 20 uM after 24 hrs by XTT assay; type: cell-based; conditions: bv-2, 24 h
BV-2 [2] = test: Antiinflammatory activity in mouse BV2 cells assessed as reduction in LPS-induced NO-production at 20 uM after 24 hrs by Griess reagent based assay relative to control; type: functional
[3] = Cytotoxicity against mouse BV2 cells assessed as cell viability at 20 uM after 24 hrs by XTT assay relative to control; type: cell-based, BV-2; conditions: read-out: Activity
BV-2 [4] = test: Antiinflammatory activity in mouse BV2 cells assessed as LPS-induced TNFalpha-production at 20 uM after 24 hrs by Griess reagent based assay relative to control; type: functional
BV-2 [5] = test: Antiinflammatory activity in mouse BV2 cells assessed as LPS-induced NO-production at 20 uM after 24 hrs by Griess reagent based assay relative to control; type: functional

Row | Compound | Activity (BV-2 [1]) | inhibition (BV-2 [2]) | viability at 24 h, 20 µM [3] | inhibition at 20 µM (BV-2 [2]) | Activity (BV-2 [4]) | Activity (BV-2 [5])
1 | CNS(=O)(=O)c1ccccc1I | Non-Toxic |  |  |  |  | 
2 | O=S(=O)(Nc1ccccc1)c1ccccc1I | Non-Toxic |  |  |  |  | 
3 | COc1ccc(CNS(=O)(=O)c2ccccc2C#Cc2coc3cc(OC)ccc3c2=O)cc1 |  | Active |  |  |  | 
4 | COc1ccc(-c2coc3cc(O)cc(O)c3c2=O)cc1 [BIOCHANIN] | Non-Toxic |  | 76% | 41% | 33% | 
5 | COc1ccc2c(=O)c(C#Cc3ccccc3S(=O)(=O)Nc3ccccc3)coc2c1 | Toxic | Active |  |  |  | 
6 | O=c1c(-c2ccc(O)cc2)coc2cc(O)ccc12 [DAIDZEIN] | Non-Toxic |  | > 80% | 35% |  | 
7 | COc1ccc2c(=O)c(-c3ccc(N4C(c5ccccc5)=Cc5ccccc5S4(=O)=O)cc3)coc2c1 | Toxic | Active |  |  |  | 
8 | CNS(=O)(=O)c1ccccc1Br | Non-Toxic |  |  |  |  | 
9 | C#Cc1coc2cc(OC)ccc2c1=O |  |  | 49% |  |  | 
10 | COc1ccc2c(=O)c(-c3ccc(NS(=O)(=O)c4ccccc4Br)cc3)coc2c1 | Non-Toxic | Active |  |  |  | 26%
11 | COc1ccc2c(=O)c(I)coc2c1 | Non-Toxic |  |  |  | 26% | 21%
12 | COc1ccc(CN2C(c3coc4cc(OC)ccc4c3=O)=Cc3ccccc3S2(=O)=O)cc1 | Non-Toxic | Active |  |  | 34% | 41%
13 | COc1ccc2c(=O)c(C3=Cc4ccccc4S(=O)(=O)N3)coc2c1 | Toxic | Active |  |  |  | 24%
14 | COc1ccc2c(=O)c(-c3ccc([N+](=O)[O-])cc3)coc2c1 | Non-Toxic | inactive |  |  |  | 
15 | COc1ccc2c(=O)c(C3=Cc4ccccc4S(=O)(=O)N3C)coc2c1 | Non-Toxic | Active |  |  |  | 
16 | COc1ccc2c(=O)c(-c3ccc(NS(=O)(=O)c4ccccc4C#Cc4ccccc4)cc3)coc2c1 | Non-Toxic | Active |  |  |  | 
17 | COc1ccc2c(=O)c(C#C[Si](C)(C)C)coc2c1 | Non-Toxic | Active |  |  |  | 21%
18 | COc1ccc2c(=O)c(-c3ccc(N)cc3)coc2c1 | Non-Toxic |  |  |  | Active | 42%
19 | COc1ccc(CNS(=O)(=O)c2ccccc2I)cc1 | Non-Toxic |  |  |  |  | 
20 | COc1ccc2c(=O)c(C3=Cc4ccccc4S(=O)(=O)N3c3ccccc3)coc2c1 | Non-Toxic | Active |  |  |  | 
21 | O=S(=O)(Nc1ccccc1)c1ccccc1Br | Non-Toxic |  |  |  |  | 
